Values quoted from earlier work in US20250295639A1, “METHODS FOR TREATING HEART DISEASES” (Cytokinetics, Incorporated, priority 2024, published 2025).

System: patients with oHCM
Conditions: cited from earlier work

CC(C)n1c(=O)cc(N[C@@H](C)c2ccccc2)[nH]c1=O [mavacamten]
benefit (pVO2, exercise duration, peak METs) in patients receiving beta blockers (EXPLORER-HCM): attenuation of benefit | peak oxygen uptake (pVO2) and other CPET parameters (patients with oHCM): has shown efficacy
